From patent US11932624B2, “MDM2 degraders and uses thereof” (Kymera Therapeutics, Inc., priority 2020, dated 2024)
pIC50: −log10 of the molar value.

system: RS411 cells; experiment: Cell Viability CTG Assay (CellTiter Glo) in RS411 cells; assay type: cell-based; details: Homo sapiens, RS4-11, 24 h, duration 1 day
Description: Example 23. Cell Viability CTG Assay
Day 0: Compounds or DMSO 60 nL were stamped to the cell plate as the platemap. RS411 cells were centrifuged at 800 rpm for 5 min, suspended with culture medium, and counted with Countess (Invitrogen). The cell density was adjusted to the recommend information. 30 μL of cell solution (1000 cells/well) was added to the assay plate as the platemap and 30 uL of media was added to column 2 and column 23 as the platemap. The plate was spun down briefly. The final concentration of the compounds started at 10 μM (3 fold dilution and 11 doses) and final DMSO concentration was 0.2%. The plate was spun down briefly and incubated at 37° C., 5% CO2 for 1-4 days.
30 μL CellTiter Glo reagent was added to each well and the plate was centrifuged at 1000 rpm for 30 sec. The plate was shaken for 1 min and centrifuged at 1000 rpm for 30 sec. The plate was incubated at RT for 10 min to stabilize the luminescent signal and the luminescence was read by EnVision.
The letter codes for IC50 indicate the concentration of compound required to affect 50% of cells: A (<0.05 μM), B (0.05-0.1 μM), C (0.1-0.5 μM), D (0.5-1.0 μM), and E (>1.0 μM).

SMILES	pIC50
Cn1c(=O)n(C2CCC(=O)NC2=O)c2ccc(C#CC3CCN(C(=O)[C@H]4CC[C@H](NC(=O)[C@@H]5NC6(CCC(C)(C)CC6)[C@@]6(C(=O)Nc7cc(Cl)ccc76)[C@H]5c5cccc(Cl)c5F)CO4)CC3)cc21 (stereo partly shown) [I-83]	> 7.30
COc1cc2c(cc1OC(C)C)C(c1ccc(Cl)cc1)N(c1ccc(N(C)CC3CCN(CCCCCCc4cccc5c4n(C)c(=O)n5C4CCC(=O)NC4=O)CC3)cc1)C(=O)C2 (stereo not shown) [I-84, 3-[4-[6-[4-[[4-[1-(4-Chlorophenyl)-7-isopropoxy-6-methoxy-3-oxo-1,4-dihydroisoquinolin-2-yl]-N-methylanilino]methyl]-1-piperidyl]hexyl]-3-methyl-2-oxo-benzimidazol-1-yl]piperidine-2,6-dione]	> 7.30
COc1cc2c(cc1OC(C)C)C(c1ccc(Cl)cc1)N(c1ccc(N(C)C[C@H]3CC[C@H](N(C)CCCCCc4ccc5c(c4)n(C)c(=O)n5C4CCC(=O)NC4=O)CC3)cc1)C(=O)C2 (stereo partly shown) [I-85]	> 7.30
COc1cc2c(cc1OC(C)C)C(c1ccc(Cl)cc1)N(c1ccc(N(C)CC3CCN(CCCCCCc4ccc5c(c4)n(C)c(=O)n5C4CCC(=O)NC4=O)CC3)cc1)C(=O)C2 (stereo not shown) [I-86]	> 7.30
COc1cc2c(cc1OC(C)C)C(c1ccc(Cl)cc1)N(c1ccc(N(C)C[C@H]3CC[C@H](N(C)CCCCCc4cccc5c4n(C)c(=O)n5C4CCC(=O)NC4=O)CC3)cc1)C(=O)C2 (stereo partly shown) [I-87]	> 7.30
Cn1c(=O)n(C2CCC(=O)NC2=O)c2ccc(C#CC3CN(C(=O)[C@H]4C[C@H](NC(=O)[C@@H]5NC6(CCCCC6)[C@@]6(C(=O)Nc7cc(Cl)ccc76)[C@H]5c5cccc(Cl)c5F)C4)C3)cc21 (stereo partly drawn) [I-89, (3′R,4'S,5′R)-6″-chloro-4′-(3-chloro-2-fluorophenyl)-N-((1r,3R)-3-(3-((1-(2,6-dioxopiperidin-3-yl)-3-methyl-2-oxo-2,3-dihydro-1H-benzo[d]imidazol-5-yl)ethynyl)azetidine-1-carbonyl)cyclobutyl)-2″-oxodispiro[cyclohexane-1,2′-pyrrolidine-3′,3″-indoline]-5′-carboxamide]	> 7.30
CCCCCC1N(c2ccc(C(=O)O)cc2OC)C(=O)[C@H]2[C@H](c3cccc(Cl)c3F)[C@@](C#N)(c3ccc(Cl)cc3F)[C@H](CC(C)(C)C)N12 (stereo partly drawn) [I-91, 4-[(5S,6R,7S,7aR)-7-(3-chloro-2-fluoro-phenyl)-6-(4-chloro-2-fluoro-phenyl)-6-cyano-5-(2,2-dimethylpropyl)-1-oxo-3-pentyl-3,5,7,7a-tetrahydropyrrolo[1,2-c]imidazol-2-yl]-3-methoxy-benzoic acid]	< 6.00
COc1cc2c(cc1OC(C)C)C(c1ccc(Cl)cc1)N(c1ccc(N(C)C[C@H]3CC[C@H](NCC(=O)NCCCCCc4ccc5c(c4)n(C)c(=O)n5C4CCC(=O)NC4=O)CC3)cc1)C(=O)C2 (stereo partly shown) [I-92, 2-[[4-[[4-[1-(4-Chlorophenyl)-7-isopropoxy-6-methoxy-3-oxo-1,4-dihydroisoquinolin-2-yl]-N-methyl-anilino]methyl]cyclohexyl]amino]-N-[5-[1-(2,6-dioxo-3-piperidyl)-3-methyl-2-oxo-benzimidazol-5-yl]pentyl]acetamide]	> 7.30
CN(CCCCCc1ccc2c(c1)n(C)c(=O)n2C1CCC(=O)NC1=O)C[C@H]1CC[C@H](NC(=O)[C@@H]2NC3(CCCCC3)[C@@]3(C(=O)Nc4cc(Cl)ccc43)[C@H]2c2cccc(Cl)c2F)CC1 (stereo partly shown) [I-93]	> 7.30
Cn1c(=O)n(C2CCC(=O)NC2=O)c2ccc(C(=O)CC3CCN(C(=O)[C@H]4CC[C@H](NC(=O)[C@@H]5NC6(CCCCC6)[C@@]6(C(=O)Nc7cc(Cl)ccc76)[C@H]5c5cccc(Cl)c5F)CC4)CC3)cc21 (stereo partly shown) [I-94]	> 7.30
CN(C(=O)[C@@H]1NC2(CCCCC2)[C@@]2(C(=O)Nc3cc(Cl)ccc32)[C@H]1c1cccc(Cl)c1F)c1ccc(C(=O)NCCCCCc2ccc3c(c2)n(C)c(=O)n3C2CCC(=O)NC2=O)cc1 (stereo partly shown) [I-96]	< 6.00
Cn1c(=O)n(C2CCC(=O)NC2=O)c2ccc(CCCCCNC(=O)c3ccc(NC(=O)[C@@H]4NC5(CCCCC5)[C@@]5(C(=O)Nc6cc(Cl)ccc65)[C@H]4c4cccc(Cl)c4F)cc3)cc21 (stereo partly shown) [I-97]	> 7.30
Cn1c(=O)n(C2CCC(=O)NC2=O)c2ccc(CCCCCNC(=O)[C@@H]3CC[C@@H](NC(=O)[C@@H]4NC5(CCC(C)(C)CC5)[C@@]5(C(=O)Nc6cc(Cl)ccc65)[C@H]4c4cccc(Cl)c4F)CO3)cc21 (stereo partly shown) [I-98]	> 7.30
CN(CCCCCc1ccc2c(c1)n(C)c(=O)n2C1CCC(=O)NC1=O)Cc1ccc(NC(=O)[C@@H]2NC3(CCCCC3)[C@@]3(C(=O)Nc4cc(Cl)ccc43)[C@H]2c2cccc(Cl)c2F)cc1 (stereo partly shown) [I-99]	> 7.30
Cn1c(=O)n(C2CCC(=O)NC2=O)c2ccc(C#CC3CN(C(=O)[C@H]4C[C@H](NC(=O)[C@@H]5NC6(CCC(C)(C)CC6)[C@@]6(C(=O)Nc7cc(Cl)ccc76)[C@H]5c5cccc(Cl)c5F)C4)C3)cc21 (stereo partly shown) [I-100]	> 7.30
CN1[C@@H](C(=O)Nc2ccc(C(=O)NCCCCCc3ccc4c(c3)n(C)c(=O)n4C3CCC(=O)NC3=O)cc2)[C@H](c2cccc(Cl)c2F)[C@]2(C(=O)Nc3cc(Cl)ccc32)C12CCCCC2 (stereo partly shown) [I-101]	> 7.30
Cn1c(=O)n(C2CCC(=O)NC2=O)c2ccc(CCC3CCN(Cc4ccc(NC(=O)[C@@H]5NC6(CCCCC6)[C@@]6(C(=O)Nc7cc(Cl)ccc76)[C@H]5c5cccc(Cl)c5F)cc4)CC3)cc21 (stereo partly shown) [I-102]	> 7.30

SMILES	pIC50
Cn1c(=O)n(C2CCC(=O)NC2=O)c2cccc(C3CCN(C[C@H]4CC[C@H](NC(=O)[C@@H]5NC6(CCC(C)(C)CC6)[C@@]6(C(=O)Nc7cc(Cl)ccc76)[C@H]5c5cccc(Cl)c5F)CC4)CC3)c21 (stereo partly shown) [I-103]	> 7.30
Cn1c(=O)n(C2CCC(=O)NC2=O)c2ccc(CCCCCNC(=O)[C@H]3CC[C@H](N(C)C(=O)[C@@H]4NC5(CCCCC5)[C@@]5(C(=O)Nc6cc(Cl)ccc65)[C@H]4c4cccc(Cl)c4F)CC3)cc21 (stereo partly shown) [I-105]	< 6.00
O=C1CCN(c2cnc3cc(C#CCOC4CCN(C(=O)c5ccc(NC(=O)[C@@H]6NC7(CCCCC7)[C@@]7(C(=O)Nc8cc(Cl)ccc87)[C@H]6c6cccc(Cl)c6F)cc5)CC4)ccn23)C(=O)N1 [I-106]	> 7.30
Cn1c(=O)n(C2CCC(=O)NC2=O)c2cccc(C3CCN(C[C@H]4CC[C@H](NC(=O)[C@@H]5NC6(CCCCC6)[C@@]6(C(=O)Nc7cc(Cl)ccc76)[C@H]5c5cccc(Cl)c5F)CC4)CC3)c21 (stereo partly shown) [I-109]	> 7.30
Cn1c(=O)n(C2CCC(=O)NC2=O)c2ccc(C#CCN3CCN(Cc4ccc(NC(=O)[C@@H]5NC6(CCCCC6)[C@@]6(C(=O)Nc7cc(Cl)ccc76)[C@H]5c5cccc(Cl)c5F)cc4)CC3)cc21 (stereo partly shown) [I-110]	> 7.30
Cn1c(=O)n(C2CCC(=O)NC2=O)c2cccc(CN3CCC(OC4CCN(C[C@H]5CC[C@H](NC(=O)[C@@H]6NC7(CCC(C)(C)CC7)[C@@]7(C(=O)Nc8cc(Cl)ccc87)[C@H]6c6cccc(Cl)c6F)CC5)CC4)CC3)c21 (stereo partly shown) [I-111]	> 7.30
Cn1c(=O)n(C2CCC(=O)NC2=O)c2cccc(CCC3CC4(CCN(C[C@H]5CC[C@H](NC(=O)[C@@H]6NC7(CCCCC7)[C@@]7(C(=O)Nc8cc(Cl)ccc87)[C@H]6c6cccc(Cl)c6F)CC5)CC4)C3)c21 (stereo partly shown) [I-112]	> 7.30
Cn1c(=O)n(C2CCC(=O)NC2=O)c2cccc(CN3CCC(OC4CCN(C[C@H]5CC[C@H](NC(=O)[C@@H]6NC7(CCCCC7)[C@@]7(C(=O)Nc8cc(Cl)ccc87)[C@H]6c6cccc(Cl)c6F)CC5)CC4)CC3)c21 (stereo partly shown) [I-113]	> 7.30
Cn1c(=O)n(C2CCC(=O)NC2=O)c2ccc(CCCN3CCN(C[C@H]4CC[C@H](NC(=O)[C@@H]5NC6(CCCCC6)[C@@]6(C(=O)Nc7cc(Cl)ccc76)[C@H]5c5cccc(Cl)c5F)CC4)CC3)cc21 (stereo partly shown) [I-114]	> 7.30
Cn1c(=O)n(C2CCC(=O)NC2=O)c2cccc(C3CCN(Cc4ccc(NC(=O)[C@@H]5NC6(CCCCC6)[C@@]6(C(=O)Nc7cc(Cl)ccc76)[C@H]5c5cccc(Cl)c5F)cc4)CC3)c21 (stereo partly shown) [I-115]	> 7.30
Cn1c(=O)n(C2CCC(=O)NC2=O)c2cccc(C#CC3CCN(Cc4ccc(CNC(=O)[C@@H]5NC6(CCCCC6)[C@@]6(C(=O)Nc7cc(Cl)ccc76)[C@H]5c5cccc(Cl)c5F)cc4)CC3)c21 (stereo partly shown) [I-116]	< 6.00
Cn1c(=O)n(C2CCC(=O)NC2=O)c2ccc(CN3CCC(OC4CCN(C[C@H]5CC[C@H](NC(=O)[C@@H]6NC7(CCCCC7)[C@@]7(C(=O)Nc8cc(Cl)ccc87)[C@H]6c6cccc(Cl)c6F)CC5)CC4)CC3)cc21 (stereo partly shown) [I-117]	> 7.30
Cn1c(=O)n(C2CCC(=O)NC2=O)c2cccc(/C=C/C3CCN(C[C@H]4CC[C@H](CNC(=O)[C@@H]5NC6(CCCCC6)[C@@]6(C(=O)Nc7cc(Cl)ccc76)[C@H]5c5cccc(Cl)c5F)CC4)CC3)c21 (stereo partly shown) [I-118]	7.00 to 7.30
O=C1CCN(c2cnc3cc(C#CC4CCN(C[C@H]5CC[C@H](NC(=O)[C@@H]6NC7(CCCCC7)[C@@]7(C(=O)Nc8cc(Cl)ccc87)[C@H]6c6cccc(Cl)c6F)CC5)CC4)ccn23)C(=O)N1 [I-119]	> 7.30
Cn1c(=O)n(C2CCC(=O)NC2=O)c2ccc(C#CCCCNC(=O)[C@H]3CC[C@H](N(C)C(=O)[C@@H]4NC5(CCCCC5)[C@@]5(C(=O)Nc6cc(Cl)ccc65)[C@H]4c4cccc(Cl)c4F)CC3)cc21 (stereo partly shown) [I-120]	< 6.00
Cn1c(=O)n(C2CCC(=O)NC2=O)c2ccc(CCCN3CCN(Cc4ccc(NC(=O)[C@@H]5NC6(CCCCC6)[C@@]6(C(=O)Nc7cc(Cl)ccc76)[C@H]5c5cccc(Cl)c5F)cc4)CC3)cc21 (stereo partly shown) [I-121]	> 7.30
Cn1c(=O)n(C2CCC(=O)NC2=O)c2ccc(C#CC3CN(C[C@H]4C[C@H](NC(=O)[C@@H]5NC6(CCC(C)(C)CC6)[C@@]6(C(=O)Nc7cc(Cl)ccc76)[C@H]5c5cccc(Cl)c5F)C4)C3)cc21 (stereo partly shown) [I-122]	> 7.30
